Like-named read-outs stand apart in the source and are kept apart here.
How the values were obtained:
Experiment in all cases: SPR (Biacore T200), SBP immobilised on CM5
Conditions in all cases: 25°C, 20 mM phosphate/citrate pH 6.5, 150 mM NaCl, 0.005% Tween 20
BpAXBP2 = target: T1, BpAXBP2; parameters: species or system Bifidobacterium pseudocatenulatum
T1 construct: gene BBPC_RS02280; predicted signal peptide removed, N-terminal His tag (pCold I), E. coli BL21; primers encode native start ASKDEN after IEGRH linker and end ALPTE; immobilised on CM5 chip

BpAXBP3 = target: T2, BpAXBP3 (Bifidobacterium pseudocatenulatum, UniProt A0ABY6YA63); assay type: binding
T2 construct: gene msmE_1; predicted signal peptide removed, N-terminal His tag (pCold I), E. coli BL21; primers encode native start KDDKTITFW after IEGRH linker and end AASKG; immobilised on CM5 chip
T2 sequence (A0ABY6YA63 29-424): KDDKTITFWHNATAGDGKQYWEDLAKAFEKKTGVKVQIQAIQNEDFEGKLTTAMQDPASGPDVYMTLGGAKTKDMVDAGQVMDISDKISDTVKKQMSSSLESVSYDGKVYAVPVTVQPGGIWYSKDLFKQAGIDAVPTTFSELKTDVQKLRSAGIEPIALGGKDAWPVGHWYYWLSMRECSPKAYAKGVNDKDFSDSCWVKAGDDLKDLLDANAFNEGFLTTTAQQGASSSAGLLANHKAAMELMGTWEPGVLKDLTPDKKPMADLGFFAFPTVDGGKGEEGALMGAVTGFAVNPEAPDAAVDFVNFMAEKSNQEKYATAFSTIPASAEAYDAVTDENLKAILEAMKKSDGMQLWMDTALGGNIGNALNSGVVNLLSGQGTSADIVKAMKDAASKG

BpAXBP1 = target: T3, BpAXBP1 (Bifidobacterium pseudocatenulatum, UniProt A0A087BW54); assay type: binding
T3 construct: predicted signal peptide removed, N-terminal His tag (pCold I), E. coli BL21; primers encode native start ACGGGTN after IEGRH linker and end KNLKVKK; immobilised on CM5 chip
T3 sequence (A0A087BW54 25-563): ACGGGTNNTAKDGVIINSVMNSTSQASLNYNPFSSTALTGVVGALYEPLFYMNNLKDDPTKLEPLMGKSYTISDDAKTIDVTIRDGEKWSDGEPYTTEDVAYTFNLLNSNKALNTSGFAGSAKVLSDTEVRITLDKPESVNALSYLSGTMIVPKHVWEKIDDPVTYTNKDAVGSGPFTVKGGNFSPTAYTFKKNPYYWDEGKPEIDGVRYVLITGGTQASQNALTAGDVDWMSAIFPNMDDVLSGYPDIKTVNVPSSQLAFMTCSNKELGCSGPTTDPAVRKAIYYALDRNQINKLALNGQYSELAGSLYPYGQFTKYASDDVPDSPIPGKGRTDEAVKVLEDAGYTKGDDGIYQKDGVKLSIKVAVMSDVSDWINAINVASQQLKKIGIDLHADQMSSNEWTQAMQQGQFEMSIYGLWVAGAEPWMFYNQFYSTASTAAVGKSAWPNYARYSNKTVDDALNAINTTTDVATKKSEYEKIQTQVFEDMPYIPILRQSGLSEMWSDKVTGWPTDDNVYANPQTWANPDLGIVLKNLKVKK

OC[C@@H]1O[C@@H](O[C@@H]2[C@@H](O)[C@H](O[C@@H]3COC(O)[C@H](O)[C@H]3O)OC[C@H]2O)[C@H](O)[C@H]1O (stereo partly drawn) [AXOS1, 3^2-α-L-arabinofuranosyl-xylobiose]
Kd (BpAXBP2): 0.66 µM
Kd (BpAXBP3): < 100 µM

OC[C@@H]1O[C@@H](O[C@@H]2[C@@H](O[C@@H]3O[C@@H](CO)[C@H](O)[C@H]3O)[C@H](O[C@@H]3CO[C@@H](O[C@@H]4COC(O)[C@H](O)[C@H]4O)[C@H](O)[C@H]3O)OC[C@H]2O)[C@H](O)[C@H]1O (stereo partly drawn) [AXOS2, 2^3,3^3-di-α-L-arabinofuranosyl-xylotriose]
Kd (BpAXBP2): 0.69 µM

OC[C@@H]1O[C@@H](O[C@H]2[C@H](O[C@@H]3CO[C@@H](O[C@@H]4COC(O)[C@H](O)[C@H]4O)[C@H](O)[C@H]3O)OC[C@@H](O)[C@@H]2O)[C@H](O)[C@H]1O (stereo partly drawn) [AXOS3, 2^3-α-L-arabinofuranosyl-xylotriose]
Kd (BpAXBP2): 19.2 µM
Kd (BpAXBP3): < 100 µM

OC[C@@H]1O[C@@H](O[C@@H]2[C@@H](O)[C@H](O[C@@H]3CO[C@@H](O[C@@H]4COC(O)[C@H](O)[C@H]4O)[C@H](O)[C@H]3O)OC[C@H]2O[C@@H]2OC[C@@H](O)[C@H](O)[C@H]2O)[C@H](O)[C@H]1O (stereo partly drawn) [AXOS4, 3^3-α-L-arabinofuranosyl-xylotetraose]
Kd (BpAXBP2): 103 µM
Kd (BpAXBP1; read-out: Kd): 7.5 µM
Kd (BpAXBP3): < 100 µM

OC1OC[C@@H](O[C@@H]2OC[C@@H](O)[C@H](O)[C@H]2O)[C@H](O)[C@H]1O (stereo partly drawn) [XOS2, xylobiose]
Kd (BpAXBP1): BpAXBP1 exhibited a high affinity for XOS and AXOS4
Kd (BpAXBP3): < 100 µM

OC1OC[C@@H](O[C@@H]2OC[C@@H](O[C@@H]3OC[C@@H](O)[C@H](O)[C@H]3O)[C@H](O)[C@H]2O)[C@H](O)[C@H]1O (stereo partly drawn) [XOS3, xylotriose]
Kd (BpAXBP1; read-out: Kd): 18.7 µM
Kd (BpAXBP3): < 100 µM

OC1OC[C@@H](O[C@@H]2OC[C@@H](O[C@@H]3OC[C@@H](O[C@@H]4OC[C@@H](O)[C@H](O)[C@H]4O)[C@H](O)[C@H]3O)[C@H](O)[C@H]2O)[C@H](O)[C@H]1O (stereo partly drawn) [XOS4, xylotetraose]
Kd (BpAXBP1; read-out: Kd): 0.63 µM
Kd (BpAXBP3): < 100 µM

OC1OC[C@@H](O[C@@H]2OC[C@@H](O[C@@H]3OC[C@@H](O[C@@H]4OC[C@@H](O[C@@H]5OC[C@@H](O)[C@H](O)[C@H]5O)[C@H](O)[C@H]4O)[C@H](O)[C@H]3O)[C@H](O)[C@H]2O)[C@H](O)[C@H]1O (stereo partly drawn) [XOS5, xylopentaose]
Kd (BpAXBP1; read-out: Kd): 1.5 µM
Kd (BpAXBP3): < 100 µM

OC1OC[C@@H](O[C@@H]2OC[C@@H](O[C@@H]3OC[C@@H](O[C@@H]4OC[C@@H](O[C@@H]5OC[C@@H](O[C@@H]6OC[C@@H](O)[C@H](O)[C@H]6O)[C@H](O)[C@H]5O)[C@H](O)[C@H]4O)[C@H](O)[C@H]3O)[C@H](O)[C@H]2O)[C@H](O)[C@H]1O (stereo partly drawn) [XOS6, xylohexaose]
Kd (BpAXBP1; read-out: Kd): 8.2 µM
Kd (BpAXBP3): < 100 µM

Reference: publication PMC7688211, “Multiple Transporters and Glycoside Hydrolases Are Involved in Arabinoxylan-Derived Oligosaccharide Utilization in Bifidobacterium pseudocatenulatum” (Applied and Environmental Microbiology, 2020)
